The values below come from US20090124819A1, “2-SUBSTITUTED VITAMIN D DERIVATIVES” (WISCONSIN ALUMNI RESEARCH FOUNDATION, priority 2001, published 2009).

This test has as its target T1, bovine thymus VDR (Bos taurus, UniProt Q28037).
T1 construct: Bovine thymus VDR was purchased from Yamasa Biochemical; purchased Yamasa Biochemical (Choshi, Chiba Prefecture, Japan) lot; 112831; host or cells: bovine thymus
T1 sequence (Q28037 1-426): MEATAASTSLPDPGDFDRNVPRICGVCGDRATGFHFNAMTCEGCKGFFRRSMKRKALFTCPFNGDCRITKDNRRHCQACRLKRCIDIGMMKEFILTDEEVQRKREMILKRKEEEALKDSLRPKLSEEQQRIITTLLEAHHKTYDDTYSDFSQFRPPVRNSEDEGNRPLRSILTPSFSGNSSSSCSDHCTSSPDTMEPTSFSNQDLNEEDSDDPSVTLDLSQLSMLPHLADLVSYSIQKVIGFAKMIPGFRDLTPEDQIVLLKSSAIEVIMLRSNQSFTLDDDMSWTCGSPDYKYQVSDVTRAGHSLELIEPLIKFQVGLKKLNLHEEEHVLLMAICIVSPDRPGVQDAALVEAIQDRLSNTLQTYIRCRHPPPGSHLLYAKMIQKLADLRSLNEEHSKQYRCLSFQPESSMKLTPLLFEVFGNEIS
In words: Binding to bovine thymus vitamin D receptor (VDR), displacement of [3H]-1α,25-dihydroxyvitamin D3. The conditions noted are these: X=(y/x)×100 from concentrations inhibiting 50% of [3H]-1α,25-dihydroxyvitamin D3 binding; 1α,25-dihydroxyvitamin D3 taken as 100. As to the method:
The capability of the vitamin D derivatives of the present invention to bind to bovine thymus VDR was tested.
The vitamin D derivatives of the present invention used were the compounds synthesized in the above-described examples, i.e., (5Z,7E)-(1S,3R)-2,2-dimethyl-9,10-seco-5,7,10(19)-cholestatrien-1,3,25-triol (compound 21), (5Z,7E)-(1R,3S)-2,2-dimethyl-9,10-seco-5,7,10(19)-cholestatrien-1,3,25-triol (compound 22), (5Z,7E)-(1S,3S)-2,2-dimethyl-9,10-seco-5,7,10(19)-cholestatrien-1,3,25-triol (compound 23), and (5Z,7E)-(1R,3R)-2,2-dimethyl-9,10-seco-5,7,10(19)-cholestatrien-1,3,25-triol (compound 24).
In connection with each of compounds 21 to 24 and 1α,25-dihydroxyvitamin D3 (used as a standard), ethanol solutions at various concentrations were prepared in the following manner: In the case of 1α,25-dihydroxyvitamin D3, serial dilutions were prepared at concentrations of 5 nanograms, 500 picograms, 250 picograms, 125 picograms, 63 picograms, 32 picograms, 16 picograms, 8 picograms, 4 picograms, 2 picograms, 1 picogram, 0.5 picogram, and 0.25 picogram as the amount of the compound contained in 50 microliters. In the case of the 1α,3β-compound and the 1α,3α-compound for the configurations of the substituents at the 1-position and the 3-position, serial dilutions were prepared at concentrations of 500 nanograms, 50 nanograms, 25 nanograms, 13 nanograms, 6.3 nanograms, 3.2 nanograms, 1.6 nanograms, 800 picograms, 400 picograms, 200 picograms, 20 picograms, and 2 picograms. In the case of the 1β,3β-compound and the 1β,3α-compound for the configurations of the substituents at the 1-position and the 3-position, serial dilutions were prepared at concentrations of 500 nanograms, 50 nanograms, 5 nanograms, 500 picograms, and 50 picograms.
Bovine thymus VDR was purchased from Yamasa Biochemical (Choshi, Chiba Prefecture, Japan; lot. 112831), and one ampoule thereof (ca. 25 mg) was dissolved in 55 ml of 0.05 M phosphate-0.5 M potassium buffer (pH 7.4).
The ethanol solution […] of each of compounds 21 to 24 or 1α,25-dihydroxyvitamin D3 and the receptor solution (500 μl) were placed in a test tube, and pre-incubated for 1 hour at room temperature. Then, a [^3H]-1α,25-dihydroxyvitamin D3 solution (50 μl) was added at a final concentration of 0.1 nM, and the mixture was incubated overnight at 4° C. Dextran-coated charcoal was added to the reaction mixture, followed by mixing. […] The supernatant (500 μl) was mixed with ACS-II (9.5 ml) (Amersham, England) for radioactivity measurement.
The relative VDR-binding potency of each of Compounds 21 to 24 was calculated from the following equation, with the VDR-binding potency of 1α,25-dihydroxyvitamin D3 being taken as 100. […]
For `C=C1/C(=C\C=C2/CCC[C@@]3(C)C2CCC3[C@H](C)CCCC(C)(C)O)C[C@@H](O)C(C)(C)[C@@H]1O` (stereo partly drawn) [Compound 21, (5Z,7E)-(1S,3R)-2,2-Dimethyl-9,10-seco-5,7,10(19)-cholestatrien-1,3,25-triol], the “Binding potency (relative VDR-binding potency)” value worked out at 3.
Consider `C=C1/C(=C\C=C2/CCC[C@@]3(C)C2CCC3[C@H](C)CCCC(C)(C)O)C[C@H](O)C(C)(C)[C@@H]1O` (stereo partly drawn) [Compound 23, (5Z,7E)-(1S,3S)-2,2-Dimethyl-9,10-seco-5,7,10(19)-cholestatrien-1,3,25-triol], for which the “Binding potency (relative VDR-binding potency)” value is 0.06.
`C=C1/C(=C\C=C2/CCC[C@@]3(C)C2CCC3[C@H](C)CCCC(C)(C)O)C[C@@H](O)C(C)(C)[C@H]1O` (stereo partly drawn) [Compound 24, (5Z,7E)-(1R,3R)-2,2-Dimethyl-9,10-seco-5,7,10(19)-cholestatrien-1,3,25-triol]: the “Binding potency (relative VDR-binding potency)” value is reported as below 0.001.
The same measure for `C=C1C(=CC=C2CCCC3(C)C2CCC3C(C)CCCC(C)(C)O)CC(O)C(C)(C)C1O` [Compound 22, (5Z,7E)-(1R,3S)-2,2-Dimethyl-9,10-seco-5,7,10(19)-cholestatrien-1,3,25-triol]: 0.005.
